In US20240139280A1, “USE OF HIF-1-ALPHA INHIBITORS IN CANCER IMMUNOTHERAPY” (ONCOC4, INC., priority 2021, published 2024):

System: E0771 tumor microenvironment
Assay: Flow cytometry of dissociated E0771 tumors (tumor cells, myeloid cells, TILs)
Format: in vivo, C57BL/6 mice
Experimental: FIGS. 6A-D. E0771 cells (0.5×10^6) were orthotopically transplanted into C57BL/6 mice (day 0). The mice received treatment with vehicle, echinomycin (LEM, 0.25 mg/kg/dose), anti-CTLA-4 mAb (9D9, 0.2 mg/mouse/injection), or their combination on days 6, 8, 10, and 12, and were euthanized on day 14. The tumors were dissociated and analyzed by flow cytometry to quantitate PD-L1 expression on tumor cells (gated on Singlets/Live_CD45^−) (FIG. 6A), M-MDSCs (gated on Singlets/Live_CD45^+/CD11b^+CD11c^−/Ly6ChighLy6G^−) (FIG. 6B), PMN-MDSCs (gated on Singlets/Live_CD45^+/CD11b^+CD11c^−/Ly6CInt.Ly6G^+) (FIG. 6C), or CD11c^+TAMs (gated on Singlets/Live_CD45^+/CD11b^+CD11c^+) (FIG. 6D). Upper panels show representative histograms of PD-L1 staining and lower panels show aggregate data from individual mice, pooled from three independent experiments (n=5 mice/group/experiment). Data shown are mean±SEM of PD-L1 MFI. Statistics were determined by one-way ANOVA with Sidak's multiple comparisons test (FIG. 6A), or by two-tailed unpaired t-tests (FIGS. 6B-D). FIGS. 6E-G. Echinomycin treatment reprograms the TME. Dissociated E0771 tumors were obtained from C57BL/6 mice treated with different therapies (n=5 mice/group), as described in FIGS. 6A-D. Single cell suspension were cultured for 4 hours with PMA+ionomycin+Golgi stop, surface stained, and then intracellular stained for IFNγ (for quantitation of Th1 and Tc1 cells) or surface stained for PD-L1. FIG. 6E. IFNγ expression in CD8+tumor-infiltrating lymphocytes (TILs) (gated on Singlets/Live_CD45^+/CD3^+/CD8^+CD4^−). […] FIG. 6F. IFNγ expression in the CD4^+ TILs (gated on Singlets/Live_CD45^+/CD3^+/CD8^−CD4^+). As in FIG. 6E, except that CD4 TIL were analyzed.
FIG. 6G. MHCII expression on CD11c^+ TAMs (gated on Singlets/Live_CD45^+/CD11b^+CD11c^+).
FIGS. 9A-H. C57BL/6 mice received E0771 cells (0.5×10^6/mouse) on day 0 followed by treatment with vehicle, echinomycin (LEM, 0.25 mg/kg/dose), anti-CTLA-4 (9D9, 0.2 mg/mouse/dose), or 9D9+LEM on days 6, 8, and 10. On day 14, tumors were analyzed by flow cytometry. […] Data are presented as the ±SEM of each group (n=5/group), analyzed by unpaired two-tailed Student's t-test and are representative of two experiments. FIGS. 9A-B. Frequencies of TILs expressing PD-1. FIGS. 9C-D. Frequencies of annexin V^+ CD8 or CD4 TILs. FIGS. 9E-F. Frequencies of CD8 TILs expressing granzyme B or perforin. FIGS. 9G-H. Granzyme B and perforin expression in CD4 TILs. FIG. 9I. Effect of depletion of CD4, CD8, or NK cells on tumor growth inhibition by 9D9+LEM in syngeneic E0771 model. C57BL/6 mice received E0771 cells (0.5×10^6/mouse) on day 0. On day 5, the mice were randomized to receive depletory antibodies (500 μg of anti-CD4 (GK1.5), anti-CD8 (YTS169.4), anti-NK1.1 (PK136), or isotype ctrl). All groups received 9D9 (200 ug) on day 6, and LEM (250 ug/kg) on days 6, 8, and 10. Mice received supplemental dose of depletory antibodies (200 μg) on days 8 and 10. The mean±SEM tumor volumes are plotted on the y axes for each group (n=5/group) and analyzed by two-way ANOVA. Representative data shown for one of two experiments.

[1] = with or without anti-CTLA-4 therapy

CSC1SC[C@H]2C(=O)N(C)[C@@H](C(C)C)C(=O)OC[C@@H](NC(=O)c3cnc4ccccc4n3)C(=O)N[C@@H](C)C(=O)N(C)[C@@H]1C(=O)N(C)[C@@H](C(C)C)C(=O)OC[C@@H](NC(=O)c1cnc3ccccc3n1)C(=O)N[C@@H](C)C(=O)N2C (stereo in doubt) [echinomycin, N,N′-(2,4,12,15,17,25-hexamethyl-11,24-bis(1-methylethyl)-27-(methylthio)-3,6,10,13,16,19,23,26-octaoxo-9,22-dioxa-28-thia-2,5,12,15,18,25-hexaazabicyclo(12.12.3)nonacosane-7,20-diyl)bis(2-quinoxalinecarboxamide)]
frequencies of tumor-infiltrated lymphocytes or myeloid subsets (E0771 tumors): did not significantly impact | apoptotic (annexin V) CD8 TILs (compared to vehicle, echinomycin added to 9D9): appeared to repress this effect | PD-1 expression on CD8 TILs (compared to vehicle, echinomycin added to anti-CTLA-4): reversed | PD-L1 expression on CD11b+CD11c+ double-positive cells [1]: significantly reduced PD-L1 expression | PD-L1 expression on PMN-MDSCs [1]: significantly reduced PD-L1 expression | PD-L1 expression on tumor-infiltrated monocytic MDSCs (M-MDSC) [1]: significantly reduced PD-L1 expression | PD-L1 expression on tumor cells (with or without anti-CTLA-4 therapy, LEM 0.25 mg/kg/dose): significantly reduced PD-L1 expression
